Source: US11299501B2 (BRISTOL-MYERS SQUIBB COMPANY, priority 2017, dated 2022)

Tests used:
Type in all cases: cell-based
[1] = biological target: T1, human TLR7 (Homo sapiens, UniProt Q9NYK1); test: TLR7 inhibition reporter assay (HEK-Blue SEAP); conditions: cells overexpressing human TLR7, SEAP reporter, stimulated with gardiquimod 7.5 μM, 22 hour incubation
T1 construct: host or cells: HEK-Blue cells
T1 sequence (Q9NYK1 27-1049): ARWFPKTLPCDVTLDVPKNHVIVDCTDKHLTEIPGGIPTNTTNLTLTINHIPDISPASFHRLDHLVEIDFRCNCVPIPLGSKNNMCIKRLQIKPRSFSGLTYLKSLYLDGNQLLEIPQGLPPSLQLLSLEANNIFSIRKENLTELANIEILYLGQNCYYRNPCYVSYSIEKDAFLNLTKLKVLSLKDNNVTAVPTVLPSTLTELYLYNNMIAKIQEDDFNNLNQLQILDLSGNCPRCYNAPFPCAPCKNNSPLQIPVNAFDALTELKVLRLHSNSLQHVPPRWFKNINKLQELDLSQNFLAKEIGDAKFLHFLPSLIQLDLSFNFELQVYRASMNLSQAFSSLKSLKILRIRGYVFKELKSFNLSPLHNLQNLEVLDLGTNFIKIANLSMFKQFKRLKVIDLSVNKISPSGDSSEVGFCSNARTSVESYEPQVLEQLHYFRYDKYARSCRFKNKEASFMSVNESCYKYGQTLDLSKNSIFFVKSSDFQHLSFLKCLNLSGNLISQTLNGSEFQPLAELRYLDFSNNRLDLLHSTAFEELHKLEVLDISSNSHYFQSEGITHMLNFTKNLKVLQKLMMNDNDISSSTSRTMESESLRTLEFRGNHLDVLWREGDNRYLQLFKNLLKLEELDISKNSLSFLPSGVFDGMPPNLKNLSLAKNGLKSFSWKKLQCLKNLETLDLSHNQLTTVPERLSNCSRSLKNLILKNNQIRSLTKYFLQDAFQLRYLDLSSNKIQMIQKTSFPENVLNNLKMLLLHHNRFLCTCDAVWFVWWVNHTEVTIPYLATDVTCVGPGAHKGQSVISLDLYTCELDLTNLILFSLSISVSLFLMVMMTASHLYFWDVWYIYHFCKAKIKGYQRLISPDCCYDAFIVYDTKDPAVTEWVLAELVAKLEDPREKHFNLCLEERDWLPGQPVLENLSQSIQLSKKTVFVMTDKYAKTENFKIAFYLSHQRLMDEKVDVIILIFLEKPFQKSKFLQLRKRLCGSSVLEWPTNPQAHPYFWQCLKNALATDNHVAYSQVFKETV
Procedure, shortened: (§1)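 HEK-Blue cells expressing human TLR7, TLR8 or TLR9 with NF-κB/AP-1-driven SEAP reporter pre-treated 30 min at room temperature with compound (0.05 nM–50 μM), then stimulated with gardiquimod 7.5 μM (TLR7), R848 15.9 μM (TLR8) or ODN2006 5 nM (TLR9). SEAP read after 22 h at 37 °C; % inhibition relative to agonist+DMSO and reference-inhibitor wells.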

[2] = biological target: T2, human TLR9 (Homo sapiens, UniProt Q9NR96); test: TLR9 inhibition reporter assay (HEK-Blue SEAP); conditions: cells overexpressing human TLR9, SEAP reporter, stimulated with ODN2006 5 nM, 22 hour incubation
T2 construct: host or cells: HEK-Blue cells
T2 sequence (Q9NR96 26-1032): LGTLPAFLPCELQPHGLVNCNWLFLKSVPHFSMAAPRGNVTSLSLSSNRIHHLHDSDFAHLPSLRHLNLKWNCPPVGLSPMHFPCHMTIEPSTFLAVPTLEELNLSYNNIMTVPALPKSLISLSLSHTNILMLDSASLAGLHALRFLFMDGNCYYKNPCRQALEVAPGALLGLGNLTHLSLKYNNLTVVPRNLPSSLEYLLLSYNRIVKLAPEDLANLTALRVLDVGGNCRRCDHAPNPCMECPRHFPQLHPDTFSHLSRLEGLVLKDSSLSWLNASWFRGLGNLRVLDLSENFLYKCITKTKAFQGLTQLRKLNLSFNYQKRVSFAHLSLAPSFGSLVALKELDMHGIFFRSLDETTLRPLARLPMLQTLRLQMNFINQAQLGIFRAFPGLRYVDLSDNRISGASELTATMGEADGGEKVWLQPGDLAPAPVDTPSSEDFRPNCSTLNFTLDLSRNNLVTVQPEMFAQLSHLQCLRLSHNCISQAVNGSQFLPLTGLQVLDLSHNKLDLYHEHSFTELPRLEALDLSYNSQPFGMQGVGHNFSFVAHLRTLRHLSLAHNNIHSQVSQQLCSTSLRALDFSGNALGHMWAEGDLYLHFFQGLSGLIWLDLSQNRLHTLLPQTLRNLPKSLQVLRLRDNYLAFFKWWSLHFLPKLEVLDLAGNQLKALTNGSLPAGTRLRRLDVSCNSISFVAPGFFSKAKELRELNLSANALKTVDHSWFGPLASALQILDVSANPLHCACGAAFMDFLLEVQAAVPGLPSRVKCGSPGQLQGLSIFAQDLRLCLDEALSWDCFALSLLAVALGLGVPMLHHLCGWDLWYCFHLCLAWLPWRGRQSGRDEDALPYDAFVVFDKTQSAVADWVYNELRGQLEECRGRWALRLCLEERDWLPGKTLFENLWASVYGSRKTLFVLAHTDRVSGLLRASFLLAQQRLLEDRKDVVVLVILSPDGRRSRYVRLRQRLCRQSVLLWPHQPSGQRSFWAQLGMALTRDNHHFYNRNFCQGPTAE
Procedure, shortened: as §1

[3] = biological target: T3, human TLR8 (Homo sapiens, UniProt Q9NR97); test: TLR8 inhibition reporter assay (HEK-Blue SEAP); conditions: cells overexpressing human TLR8, SEAP reporter, stimulated with R848 15.9 μM, 22 hour incubation
T3 construct: host or cells: HEK-Blue cells
T3 sequence (Q9NR97 27-1041): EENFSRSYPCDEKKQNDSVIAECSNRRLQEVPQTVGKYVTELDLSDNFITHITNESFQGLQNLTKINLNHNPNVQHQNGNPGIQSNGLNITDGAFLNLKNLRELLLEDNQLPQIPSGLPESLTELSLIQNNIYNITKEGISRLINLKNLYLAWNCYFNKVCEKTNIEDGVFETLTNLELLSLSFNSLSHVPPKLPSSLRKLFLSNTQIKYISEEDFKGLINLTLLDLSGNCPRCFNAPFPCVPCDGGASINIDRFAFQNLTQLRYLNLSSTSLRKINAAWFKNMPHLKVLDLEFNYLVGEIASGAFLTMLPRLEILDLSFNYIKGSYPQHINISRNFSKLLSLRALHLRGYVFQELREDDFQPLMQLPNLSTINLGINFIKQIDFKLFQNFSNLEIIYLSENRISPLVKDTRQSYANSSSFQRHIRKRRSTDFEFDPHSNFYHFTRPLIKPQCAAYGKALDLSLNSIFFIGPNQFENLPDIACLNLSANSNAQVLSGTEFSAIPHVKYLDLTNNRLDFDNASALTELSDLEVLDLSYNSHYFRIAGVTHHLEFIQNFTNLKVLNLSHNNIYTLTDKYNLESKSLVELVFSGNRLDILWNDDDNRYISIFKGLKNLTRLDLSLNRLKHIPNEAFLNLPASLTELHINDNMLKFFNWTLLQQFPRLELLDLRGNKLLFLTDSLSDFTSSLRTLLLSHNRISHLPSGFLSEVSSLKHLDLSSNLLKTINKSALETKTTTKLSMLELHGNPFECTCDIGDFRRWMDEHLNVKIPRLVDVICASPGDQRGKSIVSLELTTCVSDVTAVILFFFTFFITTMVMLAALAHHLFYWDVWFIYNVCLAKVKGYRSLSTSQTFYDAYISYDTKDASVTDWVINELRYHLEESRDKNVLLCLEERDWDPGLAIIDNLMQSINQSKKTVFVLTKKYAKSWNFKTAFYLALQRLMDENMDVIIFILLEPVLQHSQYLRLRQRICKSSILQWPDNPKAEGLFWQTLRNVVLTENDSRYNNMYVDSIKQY
Procedure, shortened: as §1

| Structure (SMILES) | IC50 [1] [nM] | IC50 [2] [nM] | IC50 [3] [nM] |
| --- | --- | --- | --- |
| CNC(=O)CN1CCC(c2ncc3[nH]c(-c4cc(C)c5ncnn5c4)c(C(C)C)c3n2)CC1 [Example 30, 2-(4-(7-isopropyl-6-(8-methyl-[1,2,4]triazolo[1,5-a]pyridin-6-yl)-5H-pyrrolo[3,2-d]pyrimidin-2-yl)piperidin-1-yl)-N-tnethylacetamide] | < 100 | > 50000 | < 100 |
| Cc1cc(-c2[nH]c3cnc(C4CCN(C5CCOCC5)CC4)nc3c2C(C)C)cn(C)c1=O [Example 21, 5-(7-isopropyl-2-(1-(tetrahydro-2H-pyran-4-yl)piperidin-4-yl)-5H-pyrrolo[3,2-d]pyrimidin-6-yl)-1,3-dimethylpyridin-2(1H)-one] | < 100 | 100 to 1000 | < 100 |
| Cc1c(-c2[nH]c3cnc(C4CCN(C(=O)CN(C)C)CC4)nc3c2C(C)C)cn2ncnc2c1C [Example 28, 1-(4-(6-(7,8-dimethyl-[1,2,4]triazolo[1,5-a]pyridin-6-yl)-7-isopropyl-5H-pyrrolo[3,2-d]pyrimidin-2-yl)piperidin-1-yl)-2-(dimethylamino)ethan-1-one] | < 100 | 1000 to 50000 | < 100 |
| CCc1c(-c2ccc(OC)c(OC)c2)[nH]c2cnc(-c3nnc(C[C@H]4CCCN4)o3)nc12 [Example 47, (R)-2-(6-(3,4-dimethoxyphenyl)-7-ethyl-5H-pyrrolo[3,2-d]pyrimidin-2-yl)-5-(pyrrolidin-2-ylmethyl)-1,3,4-oxadiazole] | 1000 to 50000 | 1000 to 50000 | 100 to 1000 |
